SMILES strings stand for the structures.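 Cultured in 96-well plates, cells were exposed to test compound for 48 hours across five concentrations. GI50 marks 50% less growth. At the TGI there is no net growth.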 Some results are limits rather than exact numbers.

What all share (assay): NCI-60 cell line screen, 48 h
Experiment [1] concerns SR leukemia.
The subject of experiment [2] is OVCAR-4 ovarian.
Experiment [3] deals with SK-MEL-28 melanoma.
The test system of experiment [4] is LOX IMVI melanoma.
In experiment [5] the test system is ACHN renal.
Experiment [6] concerns U251 CNS.
Experiment [7] deals with NCI-H226 lung.
Experiment [8] concerns RPMI-8226 leukemia.
Experiment [9] concerns A498 renal.
For experiment [10], the system named is SK-OV-3 ovarian.

On to `Cn1cc(-c2nonc2-c2cn(C)c3ccccc23)c2ccccc21`, for which the GI50 in [1] was 406 nM; in [2], 2740 nM; in experiment [3], 4680 nM; in experiment [4], 1240 nM; in experiment [5], 1470 nM; in [6], 689 nM. Besides, the GI50 in [7] was 3250 nM; in experiment [8] it was 967 nM; in [9] it was 337 nM; in experiment [10] it was 1280 nM. Also, the TGI in experiment [1], in experiment [2], in experiment [3], in [4], in experiment [5] and in experiment [6] was greater than 100 µM each time. Further, the TGI in [7], in experiment [8] and in [10] was greater than 100 µM each time.
Consider `CCn1c2ccccc2c2cc(/C=C(/C#N)C(N)=O)ccc21`, for which the GI50 in [1] was 3540 nM; in [2] it was 6540 nM; in experiment [3] it was 40100 nM; in [4], 14400 nM; in [5] it was greater than 76000 nM; in experiment [6], 5450 nM. Also, the GI50 in experiment [7] was 209 nM; in experiment [8] it was 7940 nM; in experiment [9] it was 188 nM; in [10], 21800 nM. Moreover, the TGI in experiment [1], in [2], in [3], in experiment [4], in [5] and in experiment [6] was greater than 100 µM each time. Also, the TGI was 1.13 µM in experiment [7], greater than 84.7 µM in experiment [8], 559 nM in experiment [9] and greater than 78.1 µM in experiment [10].
On to `COc1cc2c(c(OC)c1OC)-c1ccc(SC)c(=O)cc1[C@@H](NC1OC(CO)C(O)C(O)C1O)CC2` (some centres not stated), for which the GI50 in experiment [1] is 12.7 nM; in [2], 226 nM; in experiment [3], 1650 nM; in [4] it was 37 nM; in experiment [5], 74.4 nM; in experiment [6], 31.8 nM. The GI50 in experiment [7] was 1520 nM; in experiment [8], 44.4 nM; in experiment [9] it was 13.5 nM; in experiment [10], 39.6 nM. Further, the TGI was greater than 100 µM in [1]; greater than 100 µM in [2]; greater than 100 µM in experiment [3]; greater than 100 µM in experiment [4]; greater than 100 µM in [5]; 24.4 µM in [6]. Also, the TGI in experiment [7] was greater than 100 µM; in experiment [8], greater than 100 µM; in [9] it was 67.4 nM; in [10], greater than 100 µM.
Consider `CCN1C(=O)N(CC)C2C1NN=c1s/c(=C3\C(=O)N(CCc4ccccc4)c4ccccc43)c(=O)n12` (configuration not stated), for which the GI50 in experiment [1] was 461 nM; in experiment [2], 1130 nM; in [3] it was 1200 nM; in [4] it was 527 nM; in [5], 767 nM; in experiment [6], 413 nM. For the same compound, the GI50 in experiment [7] is 811 nM; in [8], 608 nM; in [9], 115 nM; in experiment [10] it was 542 nM. The TGI in experiment [1] is greater than 36.2 µM; in [2] it was greater than 100 µM; in experiment [3] it was greater than 28.4 µM; in experiment [4], 4.94 µM; in experiment [6] it was 15.6 µM; in experiment [7], 3.78 µM. For the same compound, the TGI in [9] is 603 nM; in experiment [10], 5.77 µM.
In the case of `N#Cc1c(N)[nH]c2ccc(Sc3ccccc3)cc12`, the TGI in experiment [1] was found to be 6.25 µM; in experiment [2], 21.6 µM; in experiment [3], 17.4 µM; in [4] it was 7.56 µM; in [5], 16 µM; in experiment [6] it was 17.5 µM. Also, the TGI in [7] turned out to be 1.29 µM; in [8], 8.65 µM; in [9], 2040 nM; in experiment [10], 20.3 µM.
For the compound `O=C(Oc1cccnc1)c1ccsc1Nc1ccnc(C(F)(F)F)c1`, the GI50 in experiment [1] is 3740 nM; in experiment [2], 5210 nM; in [3], 6280 nM; in [4], 3190 nM; in experiment [5], 17700 nM; in experiment [6] it was 3910 nM. Moreover, the GI50 in experiment [7] was 22300 nM; in [8], 6450 nM; in experiment [9], 31100 nM; in experiment [10], 4000 nM. The TGI in experiment [1] is 47.1 µM; in [2], greater than 100 µM; in experiment [3] it was 39.9 µM; in experiment [4], greater than 100 µM; in [5], 95.8 µM; in experiment [6], 18.7 µM. For the same compound, the TGI in experiment [7] was greater than 100 µM; in [8] it was 51.8 µM; in [9] it was 76200 nM; in experiment [10], 29.5 µM.
Take `N#CN1CC[C@H](C(=O)Nc2ncc(-c3ccncc3)s2)C1`: the GI50 in [1] was less than 10 nM; in experiment [2] it was less than 27 nM; in experiment [3], 81.4 nM; in experiment [4], less than 19 nM; in [5] it was 34.8 nM; in experiment [6], 85.3 nM. Moreover, the GI50 was 151 nM in experiment [7], less than 20.1 nM in experiment [8], 121 nM in experiment [9] and 1150 nM in experiment [10]. Also, the TGI was 4.18 µM in experiment [1]; 7.07 µM in experiment [2]; 9.19 µM in experiment [3]; greater than 100 µM in experiment [4]; greater than 100 µM in experiment [5]; 53.5 µM in experiment [6]. Also, the TGI in experiment [7] was 1.5 µM; in experiment [8], 1.27 µM; in experiment [9], 596 nM; in experiment [10] it was greater than 30.9 µM.
Turning to `CN(CC(N)=O)C(=O)N(CCCl)N=O`, the TGI in experiment [1], in experiment [2], in [3], in experiment [4], in [5] and in [6] was greater than 100 µM in each case. In addition, the TGI in experiment [7] was greater than 100 µM; in experiment [8], greater than 100 µM; in [9] it was greater than 100000 nM; in experiment [10] it was greater than 100 µM.
In the case of `Cc1nc2ccccc2c(/C=C/c2ccc(Br)cc2)c1C(=O)/C=C/c1ccccc1`, the GI50 in experiment [1] is 1240 nM; in [2], 1690 nM; in experiment [3], 1890 nM; in experiment [4], 1650 nM; in experiment [5], 1640 nM; in [6], 1570 nM. Moreover, the GI50 in experiment [7] is 1670 nM; in experiment [8] it was 1380 nM; in [9], 1750 nM; in [10] it was 1880 nM. Further, the TGI is 6.6 µM in [1]; 4.49 µM in [2]; 3.4 µM in [3]; 3.01 µM in [4]; 3.02 µM in [5]; 2.97 µM in experiment [6]. Moreover, the TGI in experiment [7] was determined as 3.35 µM; in [8], 5.1 µM; in experiment [9] it was 3280 nM; in experiment [10], 4.15 µM.
For the compound `Cc1cccc(NC(=O)c2sc3nc4c(cc3c2N)CN(Cc2ccccc2)CC4)c1C`, the GI50 in [1] is 94.1 nM; in experiment [2], 971 nM; in experiment [3], 4060 nM; in [4], 254 nM; in experiment [5], 409 nM; in experiment [6] it was 251 nM. Besides, the GI50 in experiment [7] is 1640 nM; in experiment [8] it was 198 nM; in experiment [9], 397 nM; in experiment [10], 216 nM. Besides, the TGI in experiment [1] is greater than 50 µM; in [2] it was 39 µM; in [3], greater than 50 µM; in experiment [4] it was greater than 50 µM; in [5], greater than 50 µM; in [6], greater than 50 µM. Moreover, the TGI is greater than 50 µM in experiment [7], greater than 50 µM in experiment [8], greater than 50000 nM in [9] and greater than 50 µM in experiment [10].
Turning to `O=[N+]([O-])c1cc(S(=O)(=O)Oc2ccccc2)ccc1Cl`, the GI50 in experiment [1] was 421 nM; in experiment [2] it was 1750 nM; in experiment [3], 2670 nM; in experiment [4] it was 1780 nM; in [5] it was 3220 nM; in [6] it was 1270 nM. For the same compound, the GI50 in [7] is 7710 nM; in experiment [8], 3330 nM; in experiment [9], 1680 nM; in experiment [10], 6210 nM. In addition, the TGI in experiment [1] worked out at 5.8 µM; in experiment [2] it was 3.2 µM; in [3], 6.4 µM; in experiment [4], 3.69 µM; in [5] it was 9.05 µM; in [6] it was 2.6 µM. Also, the TGI in [7] was 21.1 µM; in experiment [8], 8.29 µM; in experiment [9] it was 4050 nM; in experiment [10], 18.8 µM.
As for `CC(C)c1c2[nH]c3ccccc3c2c(C(C)C)c2[nH]c3ccccc3c12`, the TGI in experiment [1], in [2], in experiment [3], in [4], in experiment [5] and in [6] was greater than 100 µM each time. In addition, the TGI was greater than 82.8 µM in experiment [7], greater than 100 µM in experiment [8], greater than 100000 nM in [9] and greater than 100 µM in experiment [10].

The values above are taken from PubChem BioAssay (NCI).
